In patent US20070166367A1, “Adept or gdept producing acetaldehyde” (priority 2004, published 2007):

How the values were obtained:
Assay type in all cases: cell-based
[1] = in vitro acetaldehyde and cisplatin toxicity assay; conditions: human, Daudi cells; higher concentrations (500 uM and 1 mM), day 3, FIG. 1; read-out: viable cell numbers as % of starting number
Experimental: (§1) Standard tissue culture techniques were used to maintain Hela, Daudi, Jurkat, CMT-64 cells in flasks in DMEM+10% FCS in a 37° C. incubator.
(§2) Cell lines subcloned into 25-cm^2 flasks and incubated in media containing dilutions of acetaldehyde, cisplatin or both. Flasks remained sealed during incubation and the media and acetaldehyde/cisplatin were replaced daily. Viable cell counts were made using Trypan blue exclusion and a standard haemocytometer.

CMT-64 = experiment: in vitro acetaldehyde and cisplatin toxicity assay
Experimental: as §1, §2

Daudi = experiment: in vitro acetaldehyde and cisplatin toxicity assay
Experimental: as §1, §2

Daudi lymphoma cells = experiment: chronic exposure of Daudi lymphoma cells to acetaldehyde in tissue culture
Experimental: The effect of acetaldehyde on Daudi lymphoma cells was investigated. Chronic exposure to acetaldehyde of Daudi lymphoma cells in tissue culture was investigated with the media and acetaldehyde replaced every 24 hours, with the lids either tight closed or slightly open (the norm for tissue culture).
B. Repeat method as above changing media and replacing acetaldehyde every 24 hours.
Results are shown as the number of cells×10^4 remaining viable at each time point. (Days 0-6)

## CC=O [acetaldehyde]
[1]
  viability at 3 days: 37%
CMT-64
  concentrations at which significant growth inhibition occurred: over 500 uM
CMT-64; 250 uM acetaldehyde
  effect on proliferation: reduction in the rate of proliferation
CMT-64; FIG. 2
  cell number as % of starting number: 170%
Daudi; 250 uM acetaldehyde
  effect on proliferation: reduction in the rate of proliferation
Daudi; higher cell density, 3 days exposure, FIG. 2
  cell number as % of starting number: 67%
Daudi lymphoma cells; 100 μM closed, 4S hr
  Numbers of viable cells: 280000 mL⁻¹
Daudi lymphoma cells; 100 μM closed, 22 hr
  Numbers of viable cells: 230000 mL⁻¹
Daudi lymphoma cells; 100 μM closed, 68 hr
  Numbers of viable cells: 370000 mL⁻¹
Daudi lymphoma cells; 100 μM open, 22 hr
  Numbers of viable cells: 260000 mL⁻¹
Daudi lymphoma cells; 100 μM open, 68 hr
  Numbers of viable cells: 510000 mL⁻¹
Daudi lymphoma cells; 100 μM, 6 days exposure
  cell killing: high levels of cell death
Daudi lymphoma cells; 100 μM, by 68 hours
  cell killing: no cell death but some inhibition of the rate of growth
Daudi lymphoma cells; 100 μM, day 1
  number of cells remaining viable: 25 ×10^4
Daudi lymphoma cells; 100 μM, day 2
  number of cells remaining viable: 28 ×10^4
Daudi lymphoma cells; 100 μM, day 3
  number of cells remaining viable: 32 ×10^4
Daudi lymphoma cells; 100 μM, day 4
  number of cells remaining viable: 26 ×10^4
Daudi lymphoma cells; 100 μM, day 5
  number of cells remaining viable: 19 ×10^4
Daudi lymphoma cells; 100 μM, day 6
  number of cells remaining viable: 2 (two) ×10^4
Daudi lymphoma cells; 250 μM, day 1
  number of cells remaining viable: 31 ×10^4
Daudi lymphoma cells; 250 μM, day 2
  number of cells remaining viable: 25 ×10^4
Daudi lymphoma cells; 250 μM, day 3
  number of cells remaining viable: 14 ×10^4
Daudi lymphoma cells; 250 μM, day 4
  number of cells remaining viable: 13 ×10^4
Daudi lymphoma cells; 250 μM, day 5
  number of cells remaining viable: 0 ×10^4
Daudi lymphoma cells; 500 μM and above, 3-4 days exposure
  cell killing: high levels of cell death
Daudi lymphoma cells; 500 μM closed, 4S hr
  Numbers of viable cells: 180000 mL⁻¹
Daudi lymphoma cells; 500 μM closed, 22 hr
  Numbers of viable cells: 200000 mL⁻¹
Daudi lymphoma cells; 500 μM closed, 68 hr
  Numbers of viable cells: 40000 mL⁻¹
Daudi lymphoma cells; 500 μM open, 4S hr
  Numbers of viable cells: 210000 mL⁻¹
Daudi lymphoma cells; 500 μM open, 22 hr
  Numbers of viable cells: 220000 mL⁻¹
Daudi lymphoma cells; 500 μM open, 68 hr
  Numbers of viable cells: 40000 mL⁻¹
Daudi lymphoma cells; 500 μM, day 1
  number of cells remaining viable: 31 ×10^4
Daudi lymphoma cells; 500 μM, day 2
  number of cells remaining viable: 16 ×10^4
Daudi lymphoma cells; 500 μM, day 3
  number of cells remaining viable: 11 ×10^4
Daudi lymphoma cells; 500 μM, day 4
  number of cells remaining viable: 3 ×10^4
Daudi lymphoma cells; 500 μM, day 5
  number of cells remaining viable: 0 ×10^4
Daudi lymphoma cells; 500 μM, within 3 days
  cell killing: nearly all the cells are dead
Daudi lymphoma cells; 750 μM, day 1
  number of cells remaining viable: 28 ×10^4
Daudi lymphoma cells; 750 μM, day 2
  number of cells remaining viable: 18 ×10^4
Daudi lymphoma cells; 750 μM, day 3
  number of cells remaining viable: 5 ×10^4
Daudi lymphoma cells; 750 μM, day 4
  number of cells remaining viable: 2 ×10^4
Daudi lymphoma cells; 750 μM, day 5
  number of cells remaining viable: 0 ×10^4
Daudi lymphoma cells; 1000 μM closed, 4S hr
  Numbers of viable cells: 30000 mL⁻¹
Daudi lymphoma cells; 1000 μM closed, 22 hr
  Numbers of viable cells: 140000 mL⁻¹
Daudi lymphoma cells; 1000 μM closed, 68 hr
  Numbers of viable cells: 0 mL⁻¹
Daudi lymphoma cells; 1000 μM open, 4S hr
  Numbers of viable cells: 80000 mL⁻¹
Daudi lymphoma cells; 1000 μM open, 22 hr
  Numbers of viable cells: 180000 mL⁻¹
Daudi lymphoma cells; 1000 μM open, 68 hr
  Numbers of viable cells: 20000 mL⁻¹
Daudi lymphoma cells; 1000 μM, within 3 days
  cell killing: kill all the cells
